# Assay results from patent US12358879B2, “Heterocyclic compound” (Takeda Pharmaceutical Company Limited, priority 2019, dated 2025).
# System: Skin fibroblasts derived from FA patients (GM4078)
# Experiment: RSL3-induced cell death inhibitory activity in skin fibroblasts derived from FA patients (ATP, CellTiter-Glo)
# Type: cell-based, human
# Settings: 3 μmol/l RSL3, 24 hours
# Description: The effects of the compounds according to the present disclosure were evaluated according to the literature (M. G. Cotticelli et al, J Pharmacol Exp Ther 2019, 369, 47-54.).
# Skin fibroblasts derived from FA patients (Coriell Institute for Medical Research, GM4078) were cultured in a culture medium consisting of DMEM (Thermo Fisher Scientific, 11995-065), 10% fetal bovine serum (Thermo Fisher Scientific, 26140-087), 1% GlutaMAX supplement (Thermo Fisher Scientific, 35050-061) and 1% Penicillin-Streptomycin solution (FUJIFILM Wako Pure Chemical Corporation, 168-23191).
# For assay, the fibroblasts in the above culture medium were seeded in a 384-well plate at 1,500 cells per well, and the test compound and 3 μmol/l (final concentration) RSL3 were added to the plate the day after seeding. The concentration of the test compound added to the assay plate was 0.01, 0.1, 1 and 10 μmol/l as 4 points, and DMSO was added as a negative control for the test compound and RSL3. Twenty-four hours after the addition of RSL3/the test compound, CellTiter-Glo Luminescent Cell Viability Assay solution (Promega, G7573) was added to the plate to lyse the cells, and ATP was measured as an index of cell viability by detecting chemiluminescence with a plate reader.
# RSL3-induced cell death inhibitory activity of the test compound=((X−C)/(T−C))×100 • X: ATP in the RSL3 addition/the test compound addition group, • C: ATP in the RSL3 addition/the test compound non-addition group, • T: ATP in the RSL3 non-addition/the test compound non-addition group
SMILES,RSL3-induced cell death inhibitory activity (%) at each compound concentration (μmol/l) (compound 0.01 μmol/l) [%],RSL3-induced cell death inhibitory activity (%) at each compound concentration (μmol/l) (compound 0.1 μmol/l) [%],RSL3-induced cell death inhibitory activity (%) at each compound concentration (μmol/l) (compound 1 μmol/l) [%],RSL3-induced cell death inhibitory activity (%) at each compound concentration (μmol/l) (compound 10 μmol/l) [%]
"CCn1nc(Nc2cn(C)nc2OC)c2ccc(C(C)(C)O)cc21 [Example 36, 2-{1-ethyl-3-[(3-methoxy-1-methyl-1H-pyrazol-4-yl)amino]-1H-indazol-6-yl}propan-2-ol]",14.0,28.5,55.8,86.0
"COCc1nn(C)cc1Nc1nn(C(C)C)c2cc(C(C)(C)O)ccc12 [Example 85, 2-[3-{[3-(methoxymethyl)-1-methyl-1H-pyrazol-4-yl]amino}-1-(propan-2-yl)-1H-indazol-6-yl]propan-2-ol]",11.4,43.2,68.4,72.6
"COCc1nn(C)cc1Nc1nn(CC2CC2)c2cc(C(C)(C)O)ccc12 [Example 84, 2-[1-(cyclopropylmethyl)-3-{[3-(methoxymethyl)-1-methyl-1H-pyrazol-4-yl]amino}-1H-indazol-6-yl]propan-2-ol]",12.4,47.5,75.7,73.8
"COc1nn(C)cc1Nc1nn(C(C)C)c2cc(C(C)(C)O)ccc12 [Example 39, 2-{3-[(3-methoxy-1-methyl-1H-pyrazol-4-yl)amino]-1-(propan-2-yl)-1H-indazol-6-yl}propan-2-ol]",58.0,66.4,83.0,93.2
"Cn1nc(Nc2cnn3c2OCCC3)c2cc(F)c(C(C)(C)O)cc21 [Example 56, 2-{3-[(6,7-dihydro-5H-pyrazolo[5,1-b][1,3]oxazin-3-yl)amino]-5-fluoro-1-methyl-1H-indazol-6-yl}propan-2-ol]",47.4,69.3,94.2,90.3
"Cn1cc(Nc2nn(C)c3cc(C(C)(C)O)ccc23)c(C(F)(F)F)n1 [Example 5, 2-(1-methyl-3-{[1-methyl-3-(trifluoromethyl)-1H-pyrazol-4-yl]amino}-1H-indazol-6-yl)propan-2-ol]",27.8,53.9,84.5,82.7
"COc1c(Nc2nn(C)c3cc(C(C)(C)O)ccc23)cnn1CC(C)C [Example 40, 2-(3-{[5-methoxy-1-(2-methylpropyl)-1H-pyrazol-4-yl]amino}-1-methyl-1H-indazol-6-yl)propan-2-ol]",40.7,63.0,98.1,94.9
"COCc1nn(C)cc1Nc1nn(C2CCC2)c2cc(C(C)(C)O)ccc12 [Example 82, 2-(1-cyclobutyl-3-{[3-(methoxymethyl)-1-methyl-1H-pyrazol-4-yl]amino}-1H-indazol-6-yl)propan-2-ol]",1.9,41.6,64.0,73.8
"COc1nn(C)cc1Nc1nn(CC2CC2(F)F)c2cc(C(C)(C)O)ccc12 (stereo not drawn) [Example 77, 2-{1-[(2,2-difluorocyclopropyl)methyl]-3-[(3-methoxy-1-methyl-1H-pyrazol-4-yl)amino]-1H-indazol-6-yl}propan-2-ol]",17.7,46.4,76.2,77.1
"COc1nn(C)cc1Nc1nn(C2CCC2)c2cc(C(C)(C)O)ccc12 [Example 68, 2-{1-cyclobutyl-3-[(3-methoxy-1-methyl-1H-pyrazol-4-yl)amino]-1H-indazol-6-yl}propan-2-ol]",49.5,66.1,95.5,93.7
"Cn1nc(NC2CCCCC2)c2cc(C(C)(C)O)ccc21 [Example 59, 2-[3-(cyclohexylamino)-1-methyl-1H-indazol-5-yl]propan-2-ol]",48.0,65.9,93.3,95.9
"COc1c(Nc2nn(C)c3cc(C(C)(C)O)cc(F)c23)cnn1CC(C)C [Example 44, 2-(4-fluoro-3-{[5-methoxy-1-(2-methylpropyl)-1H-pyrazol-4-yl]amino}-1-methyl-1H-indazol-6-yl)propan-2-ol]",38.3,61.3,78.4,95.0
"Cn1nc(Nc2cccc3c2OCC3)c2ccc(C(C)(C)O)cc21 [Example 2, 2-{3-[(2,3-dihydro-1-benzofuran-7-yl)amino]-1-methyl-1H-indazol-6-yl}propan-2-ol]",4.7,71.7,95.4,83.5
"COc1nn(C)cc1Nc1nn(C2CCC2)c2ccc(C(C)(C)O)cc12 [Example 70, 2-{1-cyclobutyl-3-[(3-methoxy-1-methyl-1H-pyrazol-4-yl)amino]-1H-indazol-5-yl}propan-2-ol]",12.1,86.1,89.2,82.2
"COCc1nn(C)cc1Nc1nn(C2CCC2)c2ccc(C(C)(C)O)cc12 [Example 88, 2-(1-cyclobutyl-3-{[3-(methoxymethyl)-1-methyl-1H-pyrazol-4-yl]amino}-1H-indazol-5-yl)propan-2-ol]",13.6,61.2,73.0,72.7
"COc1nn(C)cc1Nc1nn(C)c2ccc(C(C)(C)O)cc12 [Example 41, 2-{3-[(3-methoxy-1-methyl-1H-pyrazol-4-yl)amino]-1-methyl-1H-indazol-5-yl}propan-2-ol]",21.3,40.8,58.1,71.7
"COc1nn(C)cc1Nc1nn(CC2CC2)c2cc(C(C)(C)O)ccc12 [Example 49, 2-{1-(cyclopropylmethyl)-3-[(3-methoxy-1-methyl-1H-pyrazol-4-yl)amino]-1H-indazol-6-yl}propan-2-ol]",37.8,64.9,96.5,93.0
"Cn1nc(Nc2cnn3c2CCCC3)c2ccc(C(C)(C)O)cc21 [Example 19, 2-{1-methyl-3-[(4,5,6,7-tetrahydropyrazolo[1,5-a]pyridin-3-yl)amino]-1H-indazol-6-yl}propan-2-ol]",11.1,32.1,58.9,78.9
